Test results as given in patent US10004701B2, “Methods and compositions for treating infection” (UNIVERSITY OF ROCHESTER, priority 2012, dated 2018).
Structures can show the parent of a compound that is named as a salt. Where two headings read alike, the source gives them in different places.

Key:
Assay in all cases: AK assay 384-well format, Prestwick library screening
[1] = test system: E. faecium; format: cell-based, Enterococcus faecium; conditions: Enterococcus faecium, 3 h
[2] = test system: S. aureus strain USA300-0114; format: cell-based, Staphylococcus aureus; conditions: Staphylococcus aureus, USA300, 3 h
[3] = test system: K. pneumoniae; format: cell-based, Klebsiella pneumoniae; conditions: Klebsiella pneumoniae, 3 h
[4] = test system: A. baumannii strain 98-37-09; format: cell-based, Acinetobacter baumannii; conditions: Acinetobacter baumannii, 983709, 3 h
[5] = test system: P. aeruginosa; format: cell-based, Pseudomonas aeruginosa; conditions: Pseudomonas aeruginosa, 3 h
[6] = test system: E. cloacae; format: cell-based, Enterobacter cloacae; conditions: Enterobacter cloacae, 3 h
[7] = test system: E. coli; format: cell-based, Escherichia coli; conditions: Escherichia coli, 3 h

**Q.** For `[H]/N=C(/N)N/C(=N/[H])NCCc1ccccc1` [Phenformin hydrochloride], which fold induction at 50 µM ([1]; 50 μM final drug concentration, 384-well format, cutoff for positive-scoring molecules 3-fold increase, read-out: AK-based Prestwick Library Screening Results, E. faecium (increase in extracellular AK activity)) is on record?
**A.** 1

**Q.** And the fold induction at 50 µM ([2]; 50 μM final drug concentration, 384-well format, cutoff for positive-scoring molecules 3-fold increase, read-out: AK-based Prestwick Library Screening Results, S. aureus (increase in extracellular AK activity))?
**A.** 0.7

**Q.** And the fold induction at 50 µM ([3]; 50 μM final drug concentration, 384-well format, cutoff for positive-scoring molecules 3-fold increase, read-out: AK-based Prestwick Library Screening Results, K. pneumoniae (increase in extracellular AK activity))?
**A.** 0.6

**Q.** And the fold induction at 50 µM ([4]; 50 μM final drug concentration, 384-well format, cutoff for positive-scoring molecules 3-fold increase, read-out: AK-based Prestwick Library Screening Results, A. baumannii (increase in extracellular AK activity))?
**A.** 0.8

**Q.** And the fold induction at 50 µM ([5]; 50 μM final drug concentration, 384-well format, cutoff for positive-scoring molecules 3-fold increase, read-out: AK-based Prestwick Library Screening Results, P. aeruginosa (increase in extracellular AK activity))?
**A.** 0.7

**Q.** What about the fold induction at 50 µM ([6]; 50 μM final drug concentration, 384-well format, cutoff for positive-scoring molecules 3-fold increase, read-out: AK-based Prestwick Library Screening Results, E. cloacae (increase in extracellular AK activity)) of the same compound?
**A.** 0.8

**Q.** And the fold induction at 50 µM ([7]; 50 μM final drug concentration, 384-well format, cutoff for positive-scoring molecules 3-fold increase, read-out: AK-based Prestwick Library Screening Results, E. coli (increase in extracellular AK activity))?
**A.** 0.8

**Q.** Which results are given for `O=C1c2ccccc2C(=O)C1c1ccccc1` [Phenindione]?
**A.** fold induction at 50 µM ([1]; 50 μM final drug concentration, planktonic, cutoff for positive 3-fold increase, read-out: AK-based Prestwick Library Screening Results, E. faecium (fold increase in extracellular AK activity)): 0.9; fold induction at 50 µM ([2]; 50 μM final drug concentration, planktonic, cutoff for positive 3-fold increase, read-out: AK-based Prestwick Library Screening Results, S. aureus (fold increase in extracellular AK activity)): 1.1; fold induction at 50 µM ([3]; 50 μM final drug concentration, planktonic, cutoff for positive 3-fold increase, read-out: AK-based Prestwick Library Screening Results, K. pneumoniae (fold increase in extracellular AK activity)): 1.1; fold induction at 50 µM ([4]; 50 μM final drug concentration, planktonic, cutoff for positive 3-fold increase, read-out: AK-based Prestwick Library Screening Results, A. baumannii (fold increase in extracellular AK activity)): 1.1; fold induction at 50 µM ([5]; 50 μM final drug concentration, planktonic, cutoff for positive 3-fold increase, read-out: AK-based Prestwick Library Screening Results, P. aeruginosa (fold increase in extracellular AK activity)): 0.9; fold induction at 50 µM ([6]; 50 μM final drug concentration, planktonic, cutoff for positive 3-fold increase, read-out: AK-based Prestwick Library Screening Results, E. cloacae (fold increase in extracellular AK activity)): 1.3; fold induction at 50 µM ([7]; 50 μM final drug concentration, planktonic, cutoff for positive 3-fold increase, read-out: AK-based Prestwick Library Screening Results, E. coli (fold increase in extracellular AK activity)): 1.2

**Q.** Which results are given for `CN(C)CCC(c1ccccc1)c1ccccn1` (centres unmarked) [Pheniramine maleate]?
**A.** fold induction at 50 µM ([1]; planktonic E. faecium, 50 μM final drug concentration, 384-well, […], read-out: AK-based Prestwick Library Screening Results: E. faecium (increase in extracellular AK activity)): 1; fold induction at 50 µM ([2]; planktonic S. aureus, 50 μM final drug concentration, 384-well, […], read-out: AK-based Prestwick Library Screening Results: S. aureus (increase in extracellular AK activity)): 1; fold induction at 50 µM ([3]; planktonic K. pneumoniae, 50 μM final drug concentration, 384-well, […], read-out: AK-based Prestwick Library Screening Results: K. pneumoniae (increase in extracellular AK activity)): 1; fold induction at 50 µM ([4]; planktonic A. baumannii, 50 μM final drug concentration, 384-well, […], read-out: AK-based Prestwick Library Screening Results: A. baumannii (increase in extracellular AK activity)): 1; fold induction at 50 µM ([5]; planktonic P. aeruginosa, 50 μM final drug concentration, 384-well, […], read-out: AK-based Prestwick Library Screening Results: P. aeruginosa (increase in extracellular AK activity)): 1; fold induction at 50 µM ([6]; planktonic E. cloacae, 50 μM final drug concentration, 384-well, […], read-out: AK-based Prestwick Library Screening Results: E. cloacae (increase in extracellular AK activity)): 1.7; fold induction at 50 µM ([7]; planktonic E. coli, 50 μM final drug concentration, 384-well, […], read-out: AK-based Prestwick Library Screening Results: E. coli (increase in extracellular AK activity)): 1.4

**Q.** With `CC(COc1ccccc1)N(CCCl)Cc1ccccc1` (centres unmarked) [Phenoxybenzamine hydrochloride] as the compound, how does the fold induction at 50 µM ([1]; 50 μM final drug concentration, […], read-out: AK-based Prestwick Library Screening Results, E. faecium (fold increase in extracellular AK activity)) read?
**A.** 0.9

**Q.** What about the fold induction at 50 µM ([2]; 50 μM final drug concentration, […], read-out: AK-based Prestwick Library Screening Results, S. aureus (fold increase in extracellular AK activity)) of the same compound?
**A.** 1.1

**Q.** And the fold induction at 50 µM ([3]; 50 μM final drug concentration, […], read-out: AK-based Prestwick Library Screening Results, K. pneumoniae (fold increase in extracellular AK activity))?
**A.** 1.2

**Q.** What about the fold induction at 50 µM ([4]; 50 μM final drug concentration, […], read-out: AK-based Prestwick Library Screening Results, A. baumannii (fold increase in extracellular AK activity)) of the same compound?
**A.** 1.3

**Q.** And the fold induction at 50 µM ([5]; 50 μM final drug concentration, […], read-out: AK-based Prestwick Library Screening Results, P. aeruginosa (fold increase in extracellular AK activity))?
**A.** 1.1

**Q.** And the fold induction at 50 µM ([6]; 50 μM final drug concentration, […], read-out: AK-based Prestwick Library Screening Results, E. cloacae (fold increase in extracellular AK activity))?
**A.** 1.4

**Q.** What about the fold induction at 50 µM ([7]; 50 μM final drug concentration, […], read-out: AK-based Prestwick Library Screening Results, E. coli (fold increase in extracellular AK activity)) of the same compound?
**A.** 1.4

**Q.** What does the source list for `CN1C(=O)CC(c2ccccc2)C1=O` (centres unmarked) [Phensuximide]?
**A.** fold induction at 50 µM ([1]; planktonic E. faecium, 50 μM final drug concentration, […], read-out: AK-based Prestwick library screening result, E. faecium (fold increase in extracellular AK activity)): 0.9; fold induction at 50 µM ([2]; planktonic S. aureus, 50 μM final drug concentration, […], read-out: AK-based Prestwick library screening result, S. aureus (fold increase in extracellular AK activity)): 0.7; fold induction at 50 µM ([3]; planktonic K. pneumoniae, 50 μM final drug concentration, […], read-out: AK-based Prestwick library screening result, K. pneumoniae (fold increase in extracellular AK activity)): 0.8; fold induction at 50 µM ([4]; planktonic A. baumannii, 50 μM final drug concentration, […], read-out: AK-based Prestwick library screening result, A. baumannii (fold increase in extracellular AK activity)): 0.8; fold induction at 50 µM ([5]; planktonic P. aeruginosa, 50 μM final drug concentration, […], read-out: AK-based Prestwick library screening result, P. aeruginosa (fold increase in extracellular AK activity)): 0.7; fold induction at 50 µM ([6]; planktonic E. cloacae, 50 μM final drug concentration, […], read-out: AK-based Prestwick library screening result, E. cloacae (fold increase in extracellular AK activity)): 1.1; fold induction at 50 µM ([7]; planktonic E. coli, 50 μM final drug concentration, […], read-out: AK-based Prestwick library screening result, E. coli (fold increase in extracellular AK activity)): 1

**Q.** For `Cc1ccc(N(CC2=NCCN2)c2cccc(O)c2)cc1` [Phentolamine hydrochloride], which fold induction at 50 µM ([1]; planktonic E. faecium, 50 μM final drug concentration, 384-well, cutoff for positive-scoring molecules 3-fold increase, read-out: AK-based Prestwick Library Screening Results: E. faecium (increase in extracellular AK activity)) is on record?
**A.** 1

**Q.** What about the fold induction at 50 µM ([2]; planktonic S. aureus, 50 μM final drug concentration, 384-well, cutoff for positive-scoring molecules 3-fold increase, read-out: AK-based Prestwick Library Screening Results: S. aureus (increase in extracellular AK activity)) of the same compound?
**A.** 1.1

**Q.** And the fold induction at 50 µM ([3]; planktonic K. pneumoniae, 50 μM final drug concentration, 384-well, cutoff for positive-scoring molecules 3-fold increase, read-out: AK-based Prestwick Library Screening Results: K. pneumoniae (increase in extracellular AK activity))?
**A.** 1.1

**Q.** And the fold induction at 50 µM ([4]; planktonic A. baumannii, 50 μM final drug concentration, 384-well, cutoff for positive-scoring molecules 3-fold increase, read-out: AK-based Prestwick Library Screening Results: A. baumannii (increase in extracellular AK activity))?
**A.** 1.4

**Q.** And the fold induction at 50 µM ([5]; planktonic P. aeruginosa, 50 μM final drug concentration, 384-well, cutoff for positive-scoring molecules 3-fold increase, read-out: AK-based Prestwick Library Screening Results: P. aeruginosa (increase in extracellular AK activity))?
**A.** 1.2

**Q.** What about the fold induction at 50 µM ([6]; planktonic E. cloacae, 50 μM final drug concentration, 384-well, cutoff for positive-scoring molecules 3-fold increase, read-out: AK-based Prestwick Library Screening Results: E. cloacae (increase in extracellular AK activity)) of the same compound?
**A.** 1.2

**Q.** And the fold induction at 50 µM ([7]; planktonic E. coli, 50 μM final drug concentration, 384-well, cutoff for positive-scoring molecules 3-fold increase, read-out: AK-based Prestwick Library Screening Results: E. coli (increase in extracellular AK activity))?
**A.** 1.4

**Q.** Which results are given for `CC(N)C(O)c1ccccc1` (centres unmarked) [Phenylpropanolamine hydrochloride]?
**A.** fold induction at 50 µM ([1]; read-out: AK-based Prestwick Library Screening Results: E. faecium (increase in extracellular AK activity)): 0.8; fold induction at 50 µM ([2]; read-out: AK-based Prestwick Library Screening Results: S. aureus (increase in extracellular AK activity)): 0.3; fold induction at 50 µM ([3]; read-out: AK-based Prestwick Library Screening Results: K. pneumoniae (increase in extracellular AK activity)): 0.5; fold induction at 50 µM ([4]; read-out: AK-based Prestwick Library Screening Results: A. baumannii (increase in extracellular AK activity)): 0.4; fold induction at 50 µM ([5]; read-out: AK-based Prestwick Library Screening Results: P. aeruginosa (increase in extracellular AK activity)): 0.4; fold induction at 50 µM ([6]; read-out: AK-based Prestwick Library Screening Results: E. cloacae (increase in extracellular AK activity)): 0.4; fold induction at 50 µM ([7]; read-out: AK-based Prestwick Library Screening Results: E. coli (increase in extracellular AK activity)): 0.5

**Q.** For `O=C(O)c1ccccc1C(=O)Nc1ccc(S(=O)(=O)Nc2nccs2)cc1` [Phthalylsulfathiazole], which fold induction at 50 µM ([1]; 50 μM final drug concentration, cutoff for positive-scoring molecules 3-fold increase, read-out: AK-based Prestwick Library Screening Results, E. faecium (fold increase in extracellular AK activity)) is on record?
**A.** 1

**Q.** And the fold induction at 50 µM ([2]; 50 μM final drug concentration, cutoff for positive-scoring molecules 3-fold increase, read-out: AK-based Prestwick Library Screening Results, S. aureus (fold increase in extracellular AK activity))?
**A.** 1.4

**Q.** And the fold induction at 50 µM ([3]; 50 μM final drug concentration, cutoff for positive-scoring molecules 3-fold increase, read-out: AK-based Prestwick Library Screening Results, K. pneumoniae (fold increase in extracellular AK activity))?
**A.** 1

**Q.** And the fold induction at 50 µM ([4]; 50 μM final drug concentration, cutoff for positive-scoring molecules 3-fold increase, read-out: AK-based Prestwick Library Screening Results, A. baumannii (fold increase in extracellular AK activity))?
**A.** 1.4

**Q.** What about the fold induction at 50 µM ([5]; 50 μM final drug concentration, cutoff for positive-scoring molecules 3-fold increase, read-out: AK-based Prestwick Library Screening Results, P. aeruginosa (fold increase in extracellular AK activity)) of the same compound?
**A.** 1

**Q.** What about the fold induction at 50 µM ([6]; 50 μM final drug concentration, cutoff for positive-scoring molecules 3-fold increase, read-out: AK-based Prestwick Library Screening Results, E. cloacae (fold increase in extracellular AK activity)) of the same compound?
**A.** 1.2

**Q.** And the fold induction at 50 µM ([7]; 50 μM final drug concentration, cutoff for positive-scoring molecules 3-fold increase, read-out: AK-based Prestwick Library Screening Results, E. coli (fold increase in extracellular AK activity))?
**A.** 1.4
